In US7550485B2, “Substituted N-heterocycle derivatives and methods of their use” (Wyeth, priority 2003, dated 2009):
Where a name gives a salt, the structure may show the parent alone.

Target: T1, hNET (Homo sapiens, UniProt P23975)
T1 construct: expressed in transfected cells
Assay: Norepinephrine (NE) uptake assay in MDCK-Net6 cells stably transfected with human hNET
Assay type: cell-based
Conditions: [3H]NE uptake; for inhibition at 1 µM: MDCK-Net6, 1 μM test compound; for EC50: test range 1 to 10,000 nM
Procedure: MDCK-Net6 cells, stably transfected with human hNET (Pacholczyk, T., R. D. Blakely, and S. G. Amara, Nature, 1991, 350(6316): p. 350-4) were cultured in growth medium containing high glucose DMEM (Gibco, Cat. No. 11995), 10% FBS (dialyzed, heat-inactivated, US Bio-Technologies, Lot FBD1129HI) and 500 μg/ml G418 (Gibco, Cat. No. 10131). Cells were plated at 300,000/T75 flask and cells were split twice weekly. The JAR cell line (human placental choriocarcinoma) was purchased from ATCC (Cat. No. HTB-144). The cells were cultured in growth medium containing RPMI 1640 (Gibco, Cat. No. 72400), 10% FBS (Irvine, Cat. No. 3000), 1% sodium pyruvate (Gibco, Cat. No. 1136) and 0.25% glucose. Cells were plated at 250,000 cells/T75 flask and split twice weekly. For all assays, cells were plated in Wallac 96-well sterile plates (PerkinElmer, Cat. No. 3983498).
Norepinephrine (NE) Uptake Assay
On day 1, cells were plated at 3,000 cells/well in growth medium and maintained in a cell incubator (37° C., 5% CO2). On day 2, growth medium was replaced with 200 μl of assay buffer (25 mM HEPES; 120 mM NaCl; 5 mM KCl; 2.5 mM CaCl2; 1.2 mM MgSO4; 2 mg/ml glucose (pH 7.4, 37° C.)) containing 0.2 mg/ml ascorbic acid and 10 μM pargyline. Plates containing cells with […] of assay buffer were equilibrated for 10 minutes at 37° C. prior to addition of compounds. A stock solution of desipramine was prepared in DMSO (10 mM) and delivered to triplicate wells containing cells for a final test concentration of 1 μM. Data from these wells were used to define non-specific NE uptake (minimum NE uptake). Test compounds were prepared in DMSO (10 mM) and diluted in assay buffer according to test range (1 to 10,000 nM). Twenty-five microliters of assay buffer (maximum NE uptake) or test compound were added directly to triplicate wells containing cells in 200 μl of assay buffer. The cells in assay buffer with test compounds were incubated for 20 minutes at 37° C. To initiate the NE uptake, [^3H]NE diluted in assay buffer (120 nM final assay concentration) was delivered in 25 μl aliquots to each well and the plates were incubated for 5 minutes (37° C.). The reaction was terminated by decanting the supernatant from the plate. The plates containing cells were washed twice with 200 μl assay buffer (37° C.) to remove free radioligand. The plates were then inverted, left to dry for 2 minutes, then reinverted and air-dried for an additional 10 minutes. The cells were lysed in 25 μl of 0.25 N NaOH solution (4° C.), placed on a shake table and vigorously shaken for 5 minutes. After cell lysis, 75 μl of scintillation cocktail was added to each well and the plates were sealed with film tape. The plates were returned to the shake table and vigorously shaken for a minimum of 10 minutes to ensure adequate partitioning of organic and aqueous solutions. The plates were counted in a Wallac Microbeta counter (PerkinElmer) to collect the raw cpm data.
For each experiment, a data stream of cpm values collected from the Wallac Microbeta counter was downloaded to a Microsoft Excel statistical application program. Calculations of EC50 values were made using the transformed-both-sides logistic dose response program written by Wyeth Biometrics Department. The statistical program uses mean cpm values from wells representing maximum binding or uptake (assay buffer) and mean cpm values from wells representing minimum binding or uptake ((1 μM desipramine (hNET) or 1 μM paroxetine (hSERT)). Estimation of the EC50 value was completed on a log scale and the line was fit between the maximum and minimum binding or uptake values. All graphic data representation was generated by normalizing each data point to a mean percent based on the maximum and minimum binding or uptake values. The EC50 values reported from multiple experiments were calculated by pooling the raw data from each experiment and analyzing the pooled data as one experiment.

T1 sequence (P23975 whole entry): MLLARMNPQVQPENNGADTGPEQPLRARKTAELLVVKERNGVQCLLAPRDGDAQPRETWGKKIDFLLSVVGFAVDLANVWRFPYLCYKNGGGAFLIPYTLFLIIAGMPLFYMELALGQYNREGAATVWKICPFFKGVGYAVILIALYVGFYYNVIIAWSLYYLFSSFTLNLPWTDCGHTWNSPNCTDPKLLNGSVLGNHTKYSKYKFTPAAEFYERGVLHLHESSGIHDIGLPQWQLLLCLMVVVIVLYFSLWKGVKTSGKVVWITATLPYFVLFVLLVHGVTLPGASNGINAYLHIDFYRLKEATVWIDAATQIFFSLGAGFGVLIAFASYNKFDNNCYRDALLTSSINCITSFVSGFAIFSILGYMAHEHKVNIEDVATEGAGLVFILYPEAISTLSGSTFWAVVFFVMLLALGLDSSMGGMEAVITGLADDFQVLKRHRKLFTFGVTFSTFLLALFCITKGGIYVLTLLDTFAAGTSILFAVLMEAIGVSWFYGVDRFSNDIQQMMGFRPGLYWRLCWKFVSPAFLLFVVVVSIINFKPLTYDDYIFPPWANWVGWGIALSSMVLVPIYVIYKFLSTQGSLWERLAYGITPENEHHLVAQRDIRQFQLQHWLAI

| SMILES | inhibition at 1 µM [%] | EC50 [µM] | % Inhibition @ 1 μM (hNET) (1 μM test compound, dihydrochloride, 1 µM) [%] |
| --- | --- | --- | --- |
| COc1ccc2cc([C@@H](CN3CCC(N4CCCCC4)CC3)C3(O)CCCCC3)ccc2c1 (single isomer, unassigned) [Example 353, dihydrochloride] | 67 | 0.32 |  |
| COc1ccc2cc([C@H](CN3CCC(N4CCCCC4)CC3)C3(O)CCCCC3)ccc2c1 (single isomer, unassigned) [Example 354, dihydrochloride] | 82 | 0.4 |  |
| CNC1CCN(C[C@H](c2cccc(Cl)c2)C2CCCCC2)CC1 (single isomer, unassigned) [Example 355, dihydrochloride] | 71 | 0.73 |  |
| CNC1CCN(C[C@@H](c2cccc(Cl)c2)C2CCCCC2)CC1 (single isomer, unassigned) [Example 356, dihydrochloride] | 56 |  |  |
| CNC1CCN(CC(c2cccc(C(F)(F)F)c2)C2(O)CCCCC2)C1 (stereo in doubt) [Example 223, 1-{2-[(3R)-3-(methylamino)pyrrolidin-1-yl]-1-[3-(trifluoromethyl)phenyl]ethyl}cyclohexanol dihydrochloride] |  |  | 41.2 |
| OC1(C(CN2CCC(N3CCCCC3)CC2)c2cccc(Cl)c2)CCCCC1 (stereo not shown) [Example 2, 1-[2-(1,4′-bipiperidin-1′-yl)-1-(3-chlorophenyl)ethyl]cyclohexanol dihydrochloride] | 100 | 0.045 |  |
| OC1(C(CN2CCC(N3CCCC3)CC2)c2cccc(Cl)c2)CCCCC1 (stereo not shown) [Example 3, 1-[1-(3-chlorophenyl)-2-(4-pyrrolidin-1-ylpiperidin-1-yl)ethyl]cyclohexanol dihydrochloride] | 100 | 0.053 |  |
| OC1(C(CN2CCC(N3CCCCC3)CC2)c2cccc(Br)c2)CCCCC1 (stereo not shown) [Example 4, 1-[2-(1,4′-bipiperidin-1′-yl)-1-(3-bromophenyl)ethyl]cyclohexanol dihydrochloride] | 97 | 0.16 |  |
| OC1(C(CN2CCC(N3CCCC3)CC2)c2cccc(Br)c2)CCCCC1 (stereo not shown) [Example 7, 1-[1-(3-bromophenyl)-2-(4-pyrrolidin-1-ylpiperidin-1-yl)ethyl]cyclohexanol dihydrochloride] | 96 | 0.07 |  |
| COc1ccc(C(CN2CCC(N3CCCCC3)CC2)C2(O)CCCCC2)cc1Br (stereo not shown) [Example 8, 1-[2-(1,4′-bipiperidin-1′-yl)-1-(3-bromo-4-methoxyphenyl)ethyl]cyclohexanol dihydrochloride] | 95 | 0.14 |  |
| COc1ccc(C(CN2CCC(N3CCCC3)CC2)C2(O)CCCCC2)cc1Br (stereo not shown) [Example 9, 1-[1-(3-bromo-4-methoxyphenyl)-2-(4-pyrrolidin-1-ylpiperidin-1-yl)ethyl]cyclohexanol dihydrochloride] | 93 | 0.18 |  |
| OC1(C(CN2CCC(N3CCCC3)CC2)c2ccc(Cl)c(Cl)c2)CCCCC1 (stereo not shown) [Example 11, 1-[1-(3,4-dichlorophenyl)-2-(4-pyrrolidin-1-ylpiperidin-1-yl)ethyl]cyclohexanol dihydrochloride] | 91 | 0.26 |  |
| CNC1CCN(CC(c2ccc(Cl)c(Cl)c2)C2(O)CCCCC2)CC1 (stereo not shown) [Example 13, 1-{1-(3,4-dichlorophenyl)-2-[4-(methylamino)piperidin-1-yl]ethyl}cyclohexanol dihydrochloride] | 89 | 0.21 |  |
| NC1CCN(CC(c2ccc(Cl)c(Cl)c2)C2(O)CCCCC2)CC1 (stereo not shown) [Example 14, 1-[2-(4-aminopiperidin-1-yl)-1-(3,4-dichlorophenyl)ethyl]cyclohexanol dihydrochloride] | 84 | 0.089 |  |
| N[C@H]1CCN(CC(c2cccc(Cl)c2)C2(O)CCCCC2)C1 (stereo partly drawn) [Example 16, 1-[2-[(3S)-3-aminopyrrolidin-1-yl]-1-(3-chlorophenyl)ethyl]cyclohexanol dihydrochloride] | 89 | 0.12 |  |
| CNC1CCN(CC(c2cccc(Cl)c2)C2(O)CCCCC2)CC1 (stereo not shown) [Example 17, 1-{1-(3-chlorophenyl)-2-[4-(methylamino)piperidin-1-yl]ethyl}cyclohexanol dihydrochloride] | 88 | 0.091 |  |
| NC1CCN(CC(c2cccc(Br)c2)C2(O)CCCCC2)CC1 (stereo not shown) [Example 18, 1-[2-(4-aminopiperidin-1-yl)-1-(3-bromophenyl)ethyl]cyclohexanol dihydrochloride] | 88 | 0.2 |  |
| CNC1CCN(CC(c2cccc(Br)c2)C2(O)CCCCC2)CC1 (stereo not shown) [Example 19, 1-{1-(3-bromophenyl)-2-[4-(methylamino)piperidin-1-yl]ethyl}cyclohexanol dihydrochloride] | 88 | 0.088 |  |
| OC1(C(CN2CCC(N3CCCCC3)CC2)c2cccc(C(F)(F)F)c2)CCCCC1 (stereo not shown) [Example 20, 1-{2-(1,4′-bipiperidin-1′-yl)-1-[3-(trifluoromethyl)phenyl]ethyl}cyclohexanol dihydrochloride] | 88 | 0.26 |  |
| OC1(C(CN2CCC(N3CCCCC3)CC2)c2ccc3ccccc3c2)CCCCC1 (stereo not shown) [Example 22, 1-[2-(1,4′-bipiperidin-1′-yl)-1-(2-naphthyl)ethyl]cyclohexanol dihydrochloride] | 85 | 0.16 |  |
| COc1ccc(C(CN2CCC(N)CC2)C2(O)CCCCC2)cc1Br (stereo not shown) [Example 25, 1-[2-(4-aminopiperidin-1-yl)-1-(3-bromo-4-methoxyphenyl)ethyl]cyclohexanol dihydrochloride] | 85 | 0.2 |  |
| OC1(C(CN2CCC(N3CCCC3)CC2)c2cccc(C(F)(F)F)c2)CCCCC1 (stereo not shown) [Example 26, 1-{2-(4-pyrrolidin-1-ylpiperidin-1-yl)-1-[3-(trifluoromethyl)phenyl]ethyl}cyclohexanol dihydrochloride] | 84 | 0.2 |  |
| CNC1CCN(CC(c2ccc(OC)c(Br)c2)C2(O)CCCCC2)CC1 (stereo not shown) [Example 29, 1-{1-(3-bromo-4-methoxyphenyl)-2-[4-(methylamino)piperidin-1-yl]ethyl}cyclohexanol dihydrochloride] | 79 | 0.15 |  |
| CNC1CCN(CC(c2cccc(C(F)(F)F)c2)C2(O)CCCCC2)CC1 (stereo not shown) [Example 30, 1-{2-[4-(methylamino)piperidin-1-yl]-1-[3-(trifluoromethyl)phenyl]ethyl}cyclohexanol dihydrochloride] | 79 | 0.53 |  |
| OC1(C(CN2CCC(N3CCCC3)CC2)c2ccc3ccccc3c2)CCCCC1 (stereo not shown) [Example 31, 1-[1-(2-naphthyl)-2-(4-pyrrolidin-1-ylpiperidin-1-yl)ethyl]cyclohexanol dihydrochloride] | 70 | 0.05 |  |
| NC1CCN(CC(c2ccc3ccccc3c2)C2(O)CCCCC2)CC1 (stereo not shown) [Example 32, 1-[2-(4-aminopiperidin-1-yl)-1-(2-naphthyl)ethyl]cyclohexanol dihydrochloride] | 69 | 0.17 |  |
| NC1CCN(CC(c2cccc(Cl)c2)C2(O)CCCCC2)CC1 (stereo not shown) [Example 35, 1-[2-(4-aminopiperidin-1-yl)-1-(3-chlorophenyl)ethyl]cyclohexanol dihydrochloride] | 59 | 0.052 |  |
